Read-outs that look alike come from different tables or passages of the source.
Tests used:
[1] = compared with micronized (ball-milled) danazol, FIG. 7
[2] = system: Caco-2 cells
Experimental: (§1) The buffer was spiked with 10 μM lucifer yellow, which was used as a paracellular marker to check monolayer integrity. HBSS containing 4% bovine albumin serum was used in the receiver compartment to ensure sink conditions.
Caco-2 cells were grown on Transwell inserts (diameter […]) and mounted in the device resulting in a surface area of 28.27 cm^2. The receiver compartment contained 180 ml and the donor 60 ml. A magnetic stirrer was used to mix the buffer in the receiver compartment and a stirrer propeller to mix the buffer in the donor compartment.

[3] = system: Caco-2 cells; assay: Permeation across Caco-2 monolayers in μFlux; type: in vitro ADME, human; details: Caco-2 monolayer, 0.78 cm^2, 10 μM lucifer yellow
Experimental: HBSS containing 4% bovine albumin serum was used in the receiver compartment to ensure sink conditions. […] Donor and receiver compartments were kept at 37° C. and typically contained 15 ml of buffer. Caco-2 cells were grown in Transwell plates and placed between the compartments resulting in a surface of 0.78 cm^2. Magnetic stirring was used for mixing in both the donor and receiver compartment. The μDISS profiler allowed in situ concentration monitoring with fiber optic probes.

[4] = system: Caco-2 cells; assay: Permeation across Caco-2 monolayers in 12-well Transwell plate; type: in vitro ADME, human; details: Caco-2 monolayer, 1.12 cm^2, 10 μM lucifer yellow
Experimental: as §1
Caco-2 cells were grown on inserts in 12-well Transwell plates (surface area 1.12 cm^2). Transwell plates are typically used for in vitro absorption studies. The experiment was performed at 37° C. at 500 rpm with 400 μl of buffer at the donor and 1.2 ml of buffer at the receiver side.

Compound	absorption [1]	Lucifer yellow Papp [2]	Lucifer yellow Papp [3]	Lucifer yellow Papp [4]
C#C[C@]1(O)CC[C@H]2[C@@H]3CCC4=Cc5oncc5C[C@]4(C)[C@H]3CC[C@@]21C [Unprocessed crystalline danazol, danazol]	much lower absorption	–	–	–
lucifer yellow	–	2.19 ×10⁻⁶ cm/s	39.37 ×10⁻⁶ cm/s	1 ×10⁻⁶ cm/s

Source: patent US11519834B2, “In vitro intestinal drug disposition device” (Enphasys AB, priority 2017, dated 2022)
